Patent US8642770B2, “Indole derivative” (Takeda Pharmaceutical Company Limited, priority 2010, dated 2014)

Columns and labels:
[1] = test system: Dietary obese male F344/Jcl rats; test: Anorectic effect (food intake) in dietary obese male F344/Jcl rats; format: in vivo; details: Rattus norvegicus, 48 h; oral, 0.5% methylcellulose suspension (5 mg/mL) at 2 mL/kg, on start day and evening of next day; food intake from initial administration to 2 days later; vs control group; read-out: Food intake inhibition rate (%)
Text: Evaluation of Anorectic Effect Using Dietary Obese Male F344/Jcl Rats
Dietary obese male F344/Jcl rats (42-57-week-old) reared on a high-fat diet (Research Diets: D12451) from 5 weeks of age were used. From before the start of experiment, the rats were independently raised, a powder high-fat diet (Research Diets: D12451M) was given, tap water was orally administered for acclimation, and thereby the rats were habituated. The food intake from the evening of the day before the start of experiment to the next morning was measured, and the rats were grouped based on the food intake and the body weight of the previous day as indices. On the day of the start of experiment and in the evening of the next day, 0.5% methylcellulose solution was orally administered to the control group, and 0.5% methylcellulose suspension (5 mg/mL) of the test compound was orally administered to the compound administration group at 2 mL/kg (6 per group for both control group and compound administration group). The food intake from the initial administration to 2 days later was measured. The food intake inhibition rate of each compound administration group to the control group was calculated.

human MCHR1 [2] = target: T1, human MCHR1 (Homo sapiens, UniProt Q99705); test: MCH receptor 1 antagonistic activity, Ca2+ mobilization assay in human MCHR1-expressing CHO cells; format: cell-based; details: test compound 0.1 μM; human MCHR1-expressing CHO cell; ligand MCH (4-19) peptide 20 nM; Fluo4 fluorescence; read-out: Inhibition rate (%)
T1 construct: expressed in transfected cells; host or cells: CHO cell clone 57 (membrane fraction)
T1 sequence (Q99705 whole entry): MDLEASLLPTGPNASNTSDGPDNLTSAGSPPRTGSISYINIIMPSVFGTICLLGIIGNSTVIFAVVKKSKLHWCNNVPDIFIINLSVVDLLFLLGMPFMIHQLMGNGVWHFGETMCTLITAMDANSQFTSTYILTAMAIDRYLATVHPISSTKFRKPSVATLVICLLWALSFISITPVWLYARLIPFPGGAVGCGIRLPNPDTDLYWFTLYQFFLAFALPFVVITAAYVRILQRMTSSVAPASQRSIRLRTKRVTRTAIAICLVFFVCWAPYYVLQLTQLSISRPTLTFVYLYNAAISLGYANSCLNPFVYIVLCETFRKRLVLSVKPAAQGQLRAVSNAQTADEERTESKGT
Description: Measurement of MCH Receptor 1 Antagonistic Activity of Test Compound Using Ca^2+ Mobilization Assay
CHO cell (CHO dhfr^−, clone #4) expressing a recombinant human MCHR1 gene for Ca^2+ mobilization assay was prepared by us. The cell was cultured in MEMα medium [445 mL of MEMα medium without nucleic acid and added with 5 mL of Penicillin-Streptomycin (Invitrogen) and 50 mL of dialyzed fetal bovine serum]. An integrated dispensing function fluorometer (CellLux, PerkinElmer) was used for Ca^2+ mobilization assay. CHO cells were sown in a 96 well plate (type 3904, Corning) with a black plate wall and clear well bottom at a density of 20000 cells/well, and cultured in an incubator for about 24 hr at 5% CO2, 37° C. The medium was removed, and the cells were washed with phosphate buffered saline (PBS). A Ca^2+ indicator dye reagent (DOJINDO LABORATORIES, Ca screening no-wash kit Fluo4) was added at 90 μL/well, and the dye was allowed to penetrate into the cell for 30 min in an incubator at 5% CO2, 37° C. The plate was set on a plate reader, a test compound solution diluted with an assay buffer [10 mM HEPES (pH 7.4), 1× assay buffer containing 0.1% BSA (DOJINDO LABORATORIES, attached to Ca screening no-wash kit Fluo4)] or DMSO solution was added at 10 μL/well, and ligand MCH (4-19) peptide (final concentration 20 nM) diluted with assay buffer or DMSO was added at 50 μL/well, during which changes in intracellular fluorescence were measured at 2 second intervals. The antagonistic activity of the test compound was calculated and shown as an inhibition rate (%) wherein the intracellular fluorescence activity resulting from the stimulation by the addition of ligand MCH (4-19) peptide was 100% and that of the well added with DMSO solution alone was 0%.

human MCHR1 [3] = target: T1, human MCHR1; test: Human MCH receptor 1 (MCHR1) competitive binding assay, [125I]-MCH(4-19), CHO cell membrane fraction; details: test compound 0.1 μM, human MCHR1-expressing CHO cell membrane, 25° C., 1 hr, read-out: Binding inhibition rate (0.1 μM)
Description: Determination of Human MCH Receptor 1 (MCHR1) Competitive Inhibitory Activity of Test Compound Using Binding Assay
Using human MCHR1(=SLC-1 receptor)-expressing CHO cell clone 57 and rat MCHR1-expressing CHO cell clone 44 described in WO01/82925, MCHR1-expressing CHO cellular membrane fractions were prepared by the following method. In phosphate buffered saline (pH 7.4) supplemented with 5 mM EDTA (ethylenediaminetetraacetic acid) were respectively suspended human and rat MCHR1-expressing CHO cells (1×10^8 cells) and centrifuged. Homogenate buffer (10 mL, 10 mM NaHCO3, 5 mM EDTA, pH 7.5, 0.5 mM PMSF (phenylmethylsulfonyl fluoride), 20 mg/L leupeptin, 4 mg/L E-64, 1 mg/L pepstatin A) was added to the pellets of the cells and, using Polytron Homogenizer, the mixture was homogenated. The supernatant obtained after centrifugation at 400×g for 10 min was further centrifuged at 100,000×g for 1 hr to give precipitate of the membrane fraction. The precipitate were suspended in 2 mL of assay buffer [20 mM Tris-HCl (pH 7.5), 5 mM EDTA, 0.5 mM PMSF, 20 mg/L leupeptin, 4 mg/L E-64, 1 mg/L pepstatin A]. The membrane fractions were suspended in assay buffer to a protein concentration of 2 mg/mL, and after dispensing, preserved at −80° C. and used upon thawing each time when in use.
The MCHR1 ligand binding inhibitory activity of the test compound was determined as follows. An MCHR1-expressing CHO cellular membrane fraction (175 μL) diluted with an assay buffer was dispensed to a 96 well polypropylene plate (3363, Corning). DMSO solution (2 μL), 100 μm cold MCH(1-19) diluted with DMSO solution (2 μL), or a test compound solution diluted with DMSO solution to various concentrations (2 μL) was added, and lastly, [^125I]-MCH(4-19) diluted with assay buffer (25 μL) was added to each well. The reaction mixture was reacted at 25° C. for 1 hr with stirring, and the reaction mixture was filtered by suction using a glass filter plate (GF/C, PerkinElmer). The filter was washed 3 times with a wash solution (300 μL, 50 mM Tris-HCl buffer, pH 7.5). The glass filter plate was dried, a liquid scintillator was added at 25 μL/well, and the residual radioactivity was measured by TopCount (PerkinElmer). The binding inhibition rate of the test compound was calculated by the following formula. Binding inhibition (%)=(radioactivity upon addition of test compound and hot MCH−radioactivity upon addition of cold MCH and hot MCH solution)/(radioactivity upon addition of DMSO solution and hot MCH−radioactivity upon addition of cold MCH and hot MCH solution)×100

melting point [°C] | inhibition at 0.1 µM (human MCHR1 [2]) [%] | inhibition at 0.1 µM (human MCHR1 [3]) [%] | SMILES | inhibition in vivo at 10 mg/kg [1] [%]
128 to 129 |  | 91 | Cn1c(CNCC2CCOC2)cc2cc(NC(=O)c3ccc(OC[C@@H]4CCCO4)cc3)ccc21 (stereo partly drawn) [Example 20, N-(1-methyl-2-{[(tetrahydrofuran-3-ylmethyl)amino]methyl}-1H-indol-5-yl)-4-[(2S)-tetrahydrofuran-2-ylmethoxy]benzamide] | 20.3
157 to 158 | 97 | 97 | Cn1c(CNCC2CCOCC2)cc2cc(NC(=O)c3ccc(OC[C@@H]4CCCO4)cc3)ccc21 [Example 17, N-(1-methyl-2-{[(tetrahydro-2H-pyran-4-ylmethyl)amino]methyl}-1H-indol-5-yl)-4-[(2S)-tetrahydrofuran-2-ylmethoxy]benzamide] | 14.7
 |  | 96 | Cn1c(CNCC(C)(C)C)cc2cc(NC(=O)c3ccc(OC[C@@H]4CCCO4)cc3)ccc21 [Example 15, N-(2-{[(2,2-dimethylpropyl)amino]methyl}-1-methyl-1H-indol-5-yl)-4-[(2S)-tetrahydrofuran-2-ylmethoxy]benzamide acetate] | 12.7
118 | 97 | 98 | Cc1c(NC(=O)c2ccc(OC[C@@H]3CCCO3)cc2F)ccc2c1cc(CNCC(C)(C)O)n2C [Example 60, 2-fluoro-N-(2-{[(2-hydroxy-2-methylpropyl)amino]methyl}-1,4-dimethyl-1H-indol-5-yl)-4-[(2S)-tetrahydrofuran-2-ylmethoxy]benzamide] | 19.9

Second part, the compound before the results:

SMILES | melting point [°C] | inhibition at 0.1 µM (human MCHR1 [2]) [%] | inhibition at 0.1 µM (human MCHR1 [3]) [%] | inhibition in vivo at 10 mg/kg [1] [%]
Cc1c(NC(=O)c2ccc(OCC3CC3)cc2)ccc2c1cc(CNCC(C)(C)O)n2C [Example 50, 4-(cyclopropylmethoxy)-N-(2-{[(2-hydroxy-2-methylpropyl)amino]methyl}-1,4-dimethyl-1H-indol-5-yl)benzamide] | 175 to 176 | 97 | 97 | 26.5
Cc1c(NC(=O)c2ccc(OC[C@@H]3CCCO3)cc2)ccc2c1cc(CN[C@H]1CC[C@](C)(O)CC1)n2C [Example 53-2, N-(2-{[(trans-4-hydroxy-4-methylcyclohexyl)amino]methyl}-1,4-dimethyl-1H-indol-5-yl)-4-[(2S)-tetrahydrofuran-2-ylmethoxy]benzamide] | 200 | 96 | 97 | 
Cc1c(NC(=O)c2ccc(OC[C@@H]3CCCO3)cc2F)ccc2cc(CN[C@H]3CC[C@](C)(O)CC3)n(C)c12 [Example 88, 2-fluoro-N-(2-{[(trans-4-hydroxy-4-methylcyclohexyl)amino]methyl}-1,7-dimethyl-1H-indol-6-yl)-4-[(2S)-tetrahydrofuran-2-ylmethoxy]benzamide] | 131 to 132 | 98 | 95 | 17.5
Cc1c(NC(=O)c2ccc(OC[C@@H]3CCCO3)cc2)ccc2c1cc(CNCC1CCOCC1)n2C [Example 55, N-(1,4-dimethyl-2-{[(tetrahydro-2H-pyran-4-ylmethyl)amino]methyl}-1H-indol-5-yl)-4-[(2S)-tetrahydrofuran-2-ylmethoxy]benzamide] | 166 to 167 | 99 | 98 | 22.7
Cc1c(NC(=O)c2ccc(OC[C@@H]3CCCO3)cc2)ccc2cc(CN[C@H]3CC[C@](C)(O)CC3)n(C)c12 [Example 84, N-(2-{[(trans-4-hydroxy-4-methylcyclohexyl)amino]methyl}-1,7-dimethyl-1H-indol-6-yl)-4-[(2S)-tetrahydrofuran-2-ylmethoxy]benzamide] | 171 to 172 | 97 | 101 | 12.1
Cc1c(NC(=O)c2ccc(OC[C@@H]3CCCO3)cc2)ccc2cc(CNCC3CCOCC3)n(C)c12 [Example 83, N-(1,7-dimethyl-2-{[(tetrahydro-2H-pyran-4-ylmethyl)amino]methyl}-1H-indol-6-yl)-4-[(2S)-tetrahydrofuran-2-ylmethoxy]benzamide] | 197 to 198 | 96 | 99 | 
Cc1c(NC(=O)c2ccc(OC[C@@H]3CCCO3)cc2)ccc2cc(CN3CCC(C)(O)CC3)[nH]c12 [Example 75, N-{2-[(4-hydroxy-4-methylpiperidin-1-yl)methyl]-7-methyl-1H-indol-6-yl}-4-[(2S)-tetrahydrofuran-2-ylmethoxy]benzamide] | 169 |  | 94 | 17.1
Cn1c(CNC2CCS(=O)(=O)CC2)cc2cc(NC(=O)c3ccc(OCC4CC4)cc3)ccc21 [Example 6, 4-(cyclopropylmethoxy)-N-(2-{[(1,1-dioxidotetrahydro-2H-thiopyran-4-yl)amino]methyl}-1-methyl-1H-indol-5-yl)benzamide] | 200 to 201 |  | 82 | 
